Results reported in patent publication US11739098B2 (BRISTOL-MYERS SQUIBB COMPANY, priority 2017, dated 2023).

Tests used:
Format in all cases: cell-based
human TLR8 = target: T1, human TLR8 (Homo sapiens, UniProt Q9NR97); assay: TLR8 inhibition reporter assay (HEK-Blue cells, SEAP reporter, R848 stimulation); details: HEK-Blue cells overexpressing human TLR8, SEAP reporter, R848 15.9 μM
T1 construct: host or cells: HEK-Blue cells (HEK293-derived reporter line)
T1 sequence (Q9NR97 27-1041): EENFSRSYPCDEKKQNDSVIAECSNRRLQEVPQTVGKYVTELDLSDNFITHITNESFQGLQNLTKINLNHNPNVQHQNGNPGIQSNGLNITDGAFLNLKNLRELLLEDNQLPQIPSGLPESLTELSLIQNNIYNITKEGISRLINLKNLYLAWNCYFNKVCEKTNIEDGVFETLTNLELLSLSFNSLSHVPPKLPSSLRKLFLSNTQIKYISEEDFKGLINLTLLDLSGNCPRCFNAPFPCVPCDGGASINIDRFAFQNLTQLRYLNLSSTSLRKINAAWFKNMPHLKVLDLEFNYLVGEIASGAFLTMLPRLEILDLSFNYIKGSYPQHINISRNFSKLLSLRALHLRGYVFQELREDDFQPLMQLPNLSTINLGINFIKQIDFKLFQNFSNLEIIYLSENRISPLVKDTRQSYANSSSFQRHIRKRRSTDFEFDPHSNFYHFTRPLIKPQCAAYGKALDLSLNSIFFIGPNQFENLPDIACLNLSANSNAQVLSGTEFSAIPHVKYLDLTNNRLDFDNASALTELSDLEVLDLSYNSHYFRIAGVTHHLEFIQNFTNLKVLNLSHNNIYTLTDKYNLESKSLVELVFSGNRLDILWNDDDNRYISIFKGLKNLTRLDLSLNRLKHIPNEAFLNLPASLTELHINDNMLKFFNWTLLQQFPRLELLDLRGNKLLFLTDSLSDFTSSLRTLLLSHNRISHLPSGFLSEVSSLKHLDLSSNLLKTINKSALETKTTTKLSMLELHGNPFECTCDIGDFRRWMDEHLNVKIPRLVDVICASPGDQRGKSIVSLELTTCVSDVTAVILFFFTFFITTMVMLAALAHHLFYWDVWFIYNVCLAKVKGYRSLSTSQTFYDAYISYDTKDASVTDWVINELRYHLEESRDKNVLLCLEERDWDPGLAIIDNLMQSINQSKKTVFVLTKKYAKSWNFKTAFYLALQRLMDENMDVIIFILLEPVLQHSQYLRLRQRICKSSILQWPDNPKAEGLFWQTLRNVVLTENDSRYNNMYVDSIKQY
How it was run: (§1)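 HEK-Blue cells overexpressing the receptor, with NF-κB/AP-1-driven SEAP, were pre-treated 30 min at room temperature with compound (0.05 nM–50 μM), then stimulated with gardiquimod 7.5 μM (TLR7), R848 15.9 μM (TLR8) or ODN2006 5 nM (TLR9). SEAP was read after 22 h at 37 °C as percent inhibition.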

human TLR7 = target: T2, human TLR7 (Homo sapiens, UniProt Q9NYK1); assay: TLR7 inhibition reporter assay (HEK-Blue cells, SEAP reporter, gardiquimod stimulation); details: HEK-Blue cells overexpressing human TLR7, SEAP reporter, gardiquimod 7.5 μM
T2 construct: host or cells: HEK-Blue cells (HEK293-derived reporter line)
T2 sequence (Q9NYK1 27-1049): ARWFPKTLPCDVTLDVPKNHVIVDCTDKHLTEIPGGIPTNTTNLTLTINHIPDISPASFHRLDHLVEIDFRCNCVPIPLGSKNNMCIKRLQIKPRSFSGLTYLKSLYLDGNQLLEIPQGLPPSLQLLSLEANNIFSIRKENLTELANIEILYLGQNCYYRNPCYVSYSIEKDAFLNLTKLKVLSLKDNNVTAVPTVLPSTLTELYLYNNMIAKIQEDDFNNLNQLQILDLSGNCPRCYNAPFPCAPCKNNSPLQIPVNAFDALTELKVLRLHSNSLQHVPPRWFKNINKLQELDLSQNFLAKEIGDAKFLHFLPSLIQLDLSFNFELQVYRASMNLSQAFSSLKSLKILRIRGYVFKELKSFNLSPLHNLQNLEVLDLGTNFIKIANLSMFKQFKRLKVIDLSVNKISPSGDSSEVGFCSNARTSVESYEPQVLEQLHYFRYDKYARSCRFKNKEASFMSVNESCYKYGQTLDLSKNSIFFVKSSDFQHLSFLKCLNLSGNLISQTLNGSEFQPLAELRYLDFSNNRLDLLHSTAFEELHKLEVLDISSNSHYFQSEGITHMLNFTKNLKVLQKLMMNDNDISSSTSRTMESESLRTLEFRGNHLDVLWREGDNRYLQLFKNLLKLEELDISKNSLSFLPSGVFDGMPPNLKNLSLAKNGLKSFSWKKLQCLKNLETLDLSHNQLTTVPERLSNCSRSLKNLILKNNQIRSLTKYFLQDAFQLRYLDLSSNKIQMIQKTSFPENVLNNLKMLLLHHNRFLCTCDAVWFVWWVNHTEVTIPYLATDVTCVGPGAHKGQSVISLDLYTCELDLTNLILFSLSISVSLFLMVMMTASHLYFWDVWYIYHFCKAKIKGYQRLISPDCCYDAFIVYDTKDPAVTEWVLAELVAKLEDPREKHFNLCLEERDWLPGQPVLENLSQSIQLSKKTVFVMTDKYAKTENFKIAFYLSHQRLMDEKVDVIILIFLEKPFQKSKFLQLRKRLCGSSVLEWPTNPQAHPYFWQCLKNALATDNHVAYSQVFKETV
How it was run: as §1

human TLR9 = target: T3, human TLR9 (Homo sapiens, UniProt Q9NR96); assay: TLR9 inhibition reporter assay (HEK-Blue cells, SEAP reporter, ODN2006 stimulation); details: HEK-Blue cells overexpressing human TLR9, SEAP reporter, ODN2006 5 nM
T3 construct: host or cells: HEK-Blue cells (HEK293-derived reporter line)
T3 sequence (Q9NR96 26-1032): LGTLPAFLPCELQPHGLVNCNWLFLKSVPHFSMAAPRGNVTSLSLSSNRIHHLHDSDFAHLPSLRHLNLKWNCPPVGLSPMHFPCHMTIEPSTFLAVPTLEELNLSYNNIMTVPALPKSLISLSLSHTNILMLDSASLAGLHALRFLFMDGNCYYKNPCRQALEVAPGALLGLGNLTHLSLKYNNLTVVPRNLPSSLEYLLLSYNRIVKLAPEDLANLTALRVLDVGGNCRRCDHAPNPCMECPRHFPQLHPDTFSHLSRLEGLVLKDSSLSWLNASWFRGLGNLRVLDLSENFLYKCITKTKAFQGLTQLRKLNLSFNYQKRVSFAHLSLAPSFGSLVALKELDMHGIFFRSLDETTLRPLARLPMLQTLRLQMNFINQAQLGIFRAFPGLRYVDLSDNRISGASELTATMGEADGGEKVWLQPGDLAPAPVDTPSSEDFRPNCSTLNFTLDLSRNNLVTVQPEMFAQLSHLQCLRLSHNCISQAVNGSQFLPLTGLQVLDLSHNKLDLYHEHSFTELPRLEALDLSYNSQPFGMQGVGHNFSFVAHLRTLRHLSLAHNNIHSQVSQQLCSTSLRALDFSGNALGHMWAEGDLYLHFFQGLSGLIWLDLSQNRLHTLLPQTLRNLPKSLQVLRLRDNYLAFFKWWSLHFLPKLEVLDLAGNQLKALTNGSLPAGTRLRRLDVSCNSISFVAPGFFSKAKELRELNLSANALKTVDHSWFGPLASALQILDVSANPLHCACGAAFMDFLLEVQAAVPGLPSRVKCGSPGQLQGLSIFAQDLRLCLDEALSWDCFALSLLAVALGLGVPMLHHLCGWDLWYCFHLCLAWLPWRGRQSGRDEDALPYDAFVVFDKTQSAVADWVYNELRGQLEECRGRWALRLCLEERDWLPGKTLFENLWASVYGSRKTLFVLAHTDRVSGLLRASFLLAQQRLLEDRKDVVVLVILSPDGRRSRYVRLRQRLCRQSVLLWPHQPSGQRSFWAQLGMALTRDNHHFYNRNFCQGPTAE
How it was run: as §1

| IC50 (human TLR8) | IC50 (human TLR7) | IC50 (human TLR9) | Compound |
| --- | --- | --- | --- |
| < 0.1 µM | < 0.1 µM | 0.1 to 1 µM | Cc1cc(-c2[nH]c3ccc(C4CCN(C(=O)CN(C)C)CC4)cc3c2C(C)C)cc2cncn12 [Example 531, 2-(dimethylamino)-1-(4-(3-isopropyl-2-(5-methylimidazo[1,5-a]pyridin-7-yl)-1H-indol-5-yl)piperidin-1-yl)ethan-1-one] |
| 0.1 to 1 µM | 1 to 50 µM | 1 to 50 µM | Cc1nc2c(-c3[nH]c4ccc(C5CCN(C(=O)CN(C)C)CC5)cc4c3C(C)C)ccc(C)n2n1 [Example 515, 1-(4-(2-(2,5-dimethyl-[1,2,4]triazolo[1,5-a]pyridin-8-yl)-3-isopropyl-1H-indol-5-yl)piperidin-1-yl)-2-(dimethylamino)ethan-1-one] |
| 0.1 to 1 µM | < 0.1 µM | 1 to 50 µM | Cc1cc2nnnn2cc1-c1[nH]c2ccc(C3CCN(C(=O)CN(C)C)CC3)cc2c1C(C)C [Example 486, 2-(dimethylamino)-1-(4-(3-isopropyl-2-(7-methyltetrazolo[1,5-a]pyridin-6-yl)-1H-indol-5-yl)piperidin-1-yl)ethan-1-one] |
| < 0.1 µM | < 0.1 µM | 0.1 to 1 µM | COc1c(C)c(-c2[nH]c3ccc(C4CCNCC4)cc3c2C(C)C)nn2ncnc12 [Example 33, 6-(3-isopropyl-5-(piperidin-4-yl)-1H-indol-2-yl)-8-methoxy-7-methyl-[1,2,4]triazolo[1,5-b]pyridazine] |
| < 0.1 µM | 0.1 to 1 µM | 1 to 50 µM | CCc1c(-c2ccnc3[nH]ccc23)[nH]c2ccc(C3CCN(Cc4cccn4C)CC3)cc12 [Example 871, 4-(3-ethyl-5-(1-((1-methyl-1H-pyrrol-2-yl)methyl)piperidin-4-yl)-1H-indol-2-yl)-1H-pyrrolo[2,3-b]pyridine] |
| 1 to 50 µM | 0.1 to 1 µM | 1 to 50 µM | CC(C)c1c(-c2cnc3ccnn3c2)[nH]c2ccc(C3CCN(CC(C)(C)O)CC3)cc12 [Example 759, 1-(4-(3-isopropyl-2-(pyrazolo[1,5-a]pyrimidin-6-yl)-1H-indol-5-yl)piperidin-1-yl)-2-methylpropan-2-ol] |
| < 0.1 µM | < 0.1 µM | 1 to 50 µM | Cc1cc(-c2[nH]c3ccc(C4CCN(CC(=O)N(C)C)CC4)cc3c2C(C)C)cn2nnnc12 [Example 313, 2-(4-(3-isopropyl-2-(8-methyltetrazolo[1,5-a]pyridin-6-yl)-1H-indol-5-yl)piperidin-1-yl)-N,N-dimethylacetamide] |
| < 0.1 µM | < 0.1 µM | 1 to 50 µM | Cc1c(-c2[nH]c3ccc(C4CCNCC4)cc3c2C(C)C)ccc2c1cnn2C [Example 94, 5-(3-isopropyl-5-(piperidin-4-yl)-1H-indol-2-yl)-1,4-dimethyl-1H-indazole] |
| < 0.1 µM | < 0.1 µM | 0.1 to 1 µM | CNC(=O)CN1CCC(c2ccc3[nH]c(-c4cc(CO)c5nccn5c4)c(C(C)C)c3c2)CC1 [Example 341, 2-(4-(2-(8-(hydroxymethyl)-6-imidazo[1,2-a]pyridinyl-6-yl)-3-isopropyl-1H-indol-5-yl)piperidin-1-yl)-N-methylacetamide] |
| 0.1 to 1 µM | 0.1 to 1 µM | 1 to 50 µM | CNC(=O)CN1CCC(c2ccc3[nH]c(-c4cccn5ncnc45)c(C(C)C)c3c2)CC1 [Example 361, 2-(4-(2-([1,2,4]triazolo[1,5-a]pyridin-8-yl)-3-isopropyl-1H-indol-5-yl)piperidin-1-yl)-N-methylacetamide] |
| < 0.1 µM | < 0.1 µM | 1 to 50 µM | CC(C)c1c(-c2cn(C)c3ncccc23)[nH]c2ccc(C3CCN(CC(=O)N(C)C)CC3)cc12 [Example 295, 2-(4-(3-isopropyl-2-(1-methyl-1H-pyrrolo[2,3-b]pyridin-3-yl)-1H-indol-5-yl)piperidin-1-yl)-N,N-dimethylacetamide] |
| < 0.1 µM | < 0.1 µM | 1 to 50 µM | COc1cc(-c2[nH]c3ccc(C4CCN(C(=O)CN(C)C)CC4)cc3c2C(C)C)cc2nc(C)nn12 [Example 496, 2-(dimethylamino)-1-(4-(3-isopropyl-2-(5-methoxy-2-methyl-[1,2,4]triazolo[1,5-a]pyridin-7-yl)-1H-indol-5-yl)piperidin-1-yl)ethan-1-one] |
| < 0.1 µM | 0.1 to 1 µM | 1 to 50 µM | CC(C)c1c(-c2cn3ccnc3cc2C(F)(F)F)[nH]c2ccc(C3CCNCC3)cc12 [Example 135, 6-(3-isopropyl-5-(piperidin-4-yl)-1H-indol-2-yl)-7-(trifluoromethyl)imidazo[1,2-a]pyridine] |
| < 0.1 µM | < 0.1 µM | 1 to 50 µM | Cc1cc(-c2[nH]c3ccc(C4CCN(C(=O)CN(C)C)CC4)cc3c2C(C)C)cc2ncnn12 [Example 536, 2-(dimethylamino)-1-(4-(3-isopropyl-2-(5-methyl-[1,2,4]triazolo[1,5-a]pyridin-7-yl)-1H-indol-5-yl)piperidin-1-yl)ethan-1-one] |
